The results in this text go back to patent publication US6849709B2, “Aerothricin derivatives” (Basilea Pharmaceutica AG, priority 2000, dated 2005).

Data set [1] concerns A. fumigatus. Description: Murine pulmonary aspergillosis, survival. It counts as in vivo, mouse. Particulars: cortisone-treated ICR male mice; once daily for 4 days; survival on day 14. The procedure: Murine pulmonary aspergillosis was created in cortisone-treated (250 mg/kg, twice sub-cutaneous treatments on 3 days before and on the infection day) ICR male mouse. Conidia of A. fumigatus (2.5×10^5 conidia/mouse) were infected intratracheally to these mice, and treatments were carried out once daily for 4 days. The efficacy of each drug was determined from the survival number, and 50% of effective dose (ED50) was calculated from the survival number at each dose on the 14 days.

Data set [2] deals with Candida albicans CY1002. Description: In vitro antifungal activity, broth micro-dilution IC80. It counts as cell-based. Particulars: YNB medium, 1-2 days at 35° C. The method, then:
(§1) The in vitro antifungal activities of the representative Aerothricins of the present study were evaluated by determining the 80% inhibitory concentration (IC80), which was calculated as the lowest concentration of an antifungal to inhibit the growth of fungus to 20% turbidity compared with the drug-free control growth spectrophotometrically.
(§2) The IC80 values were determined by the broth micro-dilution procedure based on NCCLS Approved Standard with the following minor modifications (National Committee for Clinical Laboratory Standards. (1997) Reference method for broth dilution antifungal susceptibility testing for yeasts. Approved standard. Document M27-A). Yeast Nitrogen Base (YNB; Difco Lab.) supplemented with 1% glucose and 0.25% K2HPO4 was used as testing medium for yeasts, the same medium solidified with 0.2% low melting point agarose (BRL) was used for filamentous fungi. Inoculum size was 1-3×10^3 cells/ml, and incubation was performed for 1-2 days at 35° C.

Data set [3] deals with Scedosporium apiospermum CF1077. The data set is described as above. It counts as cell-based. The conditions noted are these: YNB medium with 0.2% agarose, 1-2 days at 35° C. The procedure: as §1, §2
Data set [4] relates to Aspegillus fumigatus CF1003. Described as above. Format: cell-based, Aspergillus fumigatus. The conditions noted are these: YNB medium with 0.2% agarose, 1-2 days at 35° C. The procedure: as §1, §2
A short description of data set [5]: Solubility. Particulars: solvents in which soluble.
The test system of data set [6] is Candida albicans. Kind of data set: Murine systemic candidiasis, survival. Format: in vivo, mouse. The conditions noted are these: Crj: CD-1 (ICR) mice; i.v. once just after infection; survival on day 7. The procedure: Mice of a conventional immunocompetent mouse strain, Crj: CD- 1 (ICR) were used for experimental infection models of systemic candidiasis. 4 weeks old Crj: CD-1 (ICR) mice were used for systemic candidiasis by injecting Candida albicans 5×10^6 conidia/mouse via the tail vein. Test compounds were intravenously (i.v.) given once just after infection for systemic candidiasis. 50% of effective dose (ED50) values were calculated from the survival number at each dose on day 7.

In data set [7] the test system is mouse hepatocytes. Kind of data set: In vitro hepatotoxicity test. The conditions noted are these: mouse hepatocyte monolayers, exposed 1 day, morphological evaluation. It counts as cell-based. The source says:
The mouse hepatocytes were isolated by a collagenase digestion and cultured in microtest plates. The hepatocyte monolayers were exposed to the test Aerothricins in the culture system for 1 day. After the culture period, the hepatocytes were observed under a microscope and evaluated morphologically. The degree of the morphological alteration (degeneration) of the hepatocytes by the test Aerothricins were compared with WF11243 and LY303366.

A short description of data set [8]: Toxicity on repeated i.v. administration to mice. Format: in vivo. Particulars: 5 mg/kg and 30 mg/kg once daily i.v. for 2 weeks.

SMILES strings stand for the structures. *1 amine or outer side, *2 acyl side, *3 side chain or, on linkers, in order; H or OH if unused. Where a SMILES comes first, the peptide text is derived from it. Bridges are numbered along the chain shown (N, C = ends). Side-chain parts run from the residue outwards. [ ]: non-standard residue; d: D form. The star is where a group is joined. ξ: configuration not given here. pTerphenylCO(4''-OnC5H11) = CCCCCOc1ccc(-c2ccc(-c3ccc(C(=O)*)cc3)cc2)cc1; Orn(4R-OH,5R-OH) = O=C([C@H](C[C@@H](O)[C@@H](O)N[*:3])N[*:1])[*:2]; hTyr(3S-OH,4S-OH) = N[C@H](C(=O)O)[C@H](O)[C@@H](O)c1ccc(O)cc1; Orn(Nα,Nα-(2-aminoethyl)2) = NCCC[C@@H](C(=O)*)N(CCN)CCN; X2 = NCCC[C@H](N)C(=O)N(CCCN)CCC[C@H](N[*:1])C(=O)[*:2]; NαBis(2-aminoethyl)dOrn = NCCC[C@H](C(=O)*)N(CCN)CCN; Pro(3S-OH,4S-Me) = C[C@H]1CN[C@H](C(=O)O)[C@H]1O; X7 = CCCCCCCCCCCCC(C)[C@H](CC(=O)[*:1])O[*:2]; X4 = NCCCN(CCC[C@H](N[*:1])C(=O)[*:2])[*:3]; X3 = CCCCCCCCCCCCC[C@H](CC(=O)[*:1])O[*:2]; X6 = NCCN(CCC[C@H](N[*:1])C(=O)[*:2])[*:3]; ξGln(3R-OH) = NC(=O)C[C@@H](O)C(N)C(=O)O; Dopa = N[C@@H](Cc1ccc(O)c(O)c1)C(=O)O; Pro(3S-OH) = O=C(O)[C@H]1NCC[C@@H]1O; X1 = NC(=O)CC(O)C(N[*:1])C(=O)[*:2]; d(aThr) = C[C@@H](O)[C@@H](N)C(=O)O; Hyp = O=C(O)[C@@H]1C[C@@H](O)CN1; X5 = NCCCN[C@@H](CCCN)C(=O)*; dOrn = NCCC[C@@H](N)C(=O)O; Orn = NCCC[C@H](N)C(=O)O

On to `CCCCCCCCCCCCC[C@@H]1CC(=O)N[C@H]([C@@H](C)O)C(=O)N[C@H](C)C(=O)N[C@@H](Cc2ccc(O)cc2)C(=O)N[C@@H](C(C)C)C(=O)N2C[C@H](O)C[C@H]2C(=O)N[C@H]([C@@H](C)O)C(=O)N[C@@H]([C@@H](C)O)C(=O)N2CC[C@H](O)[C@H]2C(=O)NC(C(O)CC(N)=O)C(=O)NCC(=O)N[C@H]([C@@H](C)O)C(=O)N[C@@H](CCCN(CCN)C(=O)[C@H](CCCN)N(CCN)CCN)C(=O)O1` (stereo partly drawn) [Aerothricin 137] ([d(aThr)][dA]YV[Hyp][d(aThr)]T[Pro(3S-OH)][X1]G[d(aThr)][X6](Orn(Nα,Nα-(2-aminoethyl)2)); linker N-C via X3), for which the “In vivo antifungal activity against pulmonary aspergillosis in mice, ED50 on day 14” value (“In vivo antifungal activity … on day 14” for short) in data set [1] is listed as 5.2 mg/kg.
Consider `CCCCCCCCCCCCC[C@@H]1CC(=O)N[C@H]([C@@H](C)O)C(=O)N[C@H](C)C(=O)N[C@@H](Cc2ccc(O)cc2)C(=O)N[C@@H](C(C)C)C(=O)N2C[C@H](O)C[C@H]2C(=O)N[C@H]([C@@H](C)O)C(=O)N[C@@H]([C@@H](C)O)C(=O)N2CC[C@H](O)[C@H]2C(=O)NC(C(O)CC(N)=O)C(=O)NCC(=O)N[C@H]([C@@H](C)O)C(=O)N[C@@H](CCCN(CCCN)C(=O)[C@H](CCCN)NCCCN)C(=O)O1` (stereo partly drawn) [Aerothricin 136] ([d(aThr)][dA]YV[Hyp][d(aThr)]T[Pro(3S-OH)][X1]G[d(aThr)][X4](X5); linker N-C via X3), for which the “In vitro Antifungal activity, IC80” value came out at 0.33 µg/mL in data set [2], 0.34 µg/mL in data set [3] and 0.38 µg/mL in data set [4].
For the molecule `CCCCCCCCCCCCC[C@@H]1CC(=O)N[C@H]([C@@H](C)O)C(=O)N[C@H](C)C(=O)N[C@@H](Cc2ccc(O)c(O)c2)C(=O)N[C@@H](C(C)C)C(=O)N2C[C@H](O)C[C@H]2C(=O)N[C@H]([C@@H](C)O)C(=O)N[C@@H]([C@@H](C)O)C(=O)N2CC[C@H](O)[C@H]2C(=O)NC(C(O)CC(N)=O)C(=O)NCC(=O)N[C@H]([C@@H](C)O)C(=O)N[C@@H](CCCN)C(=O)O1` (stereo partly drawn) [Aerothricin 2] ([d(aThr)][dA][Dopa]V[Hyp][d(aThr)]T[Pro(3S-OH)][X1]G[d(aThr)][Orn]; linker N-C via X3), the Solubility entry in data set [5] was “Soluble: water, methanol, dimethylsulfoxide”.
With `CCCCCCCCCCCCC[C@@H]1CC(=O)N[C@H]([C@@H](C)O)C(=O)N[C@H](C)C(=O)N[C@@H](Cc2ccc(O)cc2)C(=O)N[C@@H](C(C)C)C(=O)N2C[C@H](O)C[C@H]2C(=O)N[C@H]([C@@H](C)O)C(=O)N[C@@H]([C@@H](C)O)C(=O)N2CC[C@H](O)[C@H]2C(=O)NC(C(O)CC(N)=O)C(=O)NCC(=O)N[C@H]([C@@H](C)O)C(=O)N[C@@H](CCCN(CCCN)C(=O)[C@@H](CCCN)N(CCN)CCN)C(=O)O1` (stereo partly drawn) [Aerothricin 135] ([d(aThr)][dA]YV[Hyp][d(aThr)]T[Pro(3S-OH)][X1]G[d(aThr)][X4](NαBis(2-aminoethyl)dOrn); linker N-C via X3), the “In vitro Antifungal activity, IC80” value in data set [2] turned out to be 0.41 µg/mL; in data set [3], 0.35 µg/mL; in data set [4], 0.37 µg/mL. Besides, the “In vivo antifungal activity against systemic candidiasis in mice, ED50 on day 7” value (“In vivo antifungal activity … on day 7” below) in data set [6] was 0.35 mg/kg. The same molecule returned a Cytotoxicity to hepatocyte in data set [7] of more than 100 µg/mL.
With `CCCCCCCCCCCCC(C)[C@@H]1CC(=O)N[C@H]([C@@H](C)O)C(=O)N[C@H](C)C(=O)N[C@@H](Cc2ccc(O)cc2)C(=O)N[C@@H](C(C)C)C(=O)N2C[C@H](O)C[C@H]2C(=O)N[C@H]([C@@H](C)O)C(=O)N[C@@H]([C@@H](C)O)C(=O)N2CC[C@H](O)[C@H]2C(=O)NC(C(O)CC(N)=O)C(=O)NCC(=O)N[C@H]([C@@H](C)O)C(=O)N[C@@H](CCCN)C(=O)O1` (stereo partly drawn) [Aerothricin 1] ([d(aThr)][dA]YV[Hyp][d(aThr)]T[Pro(3S-OH)][X1]G[d(aThr)][Orn]; linker N-C via X7), in data set [5], the Solubility result was “Soluble: water, methanol, dimethylsulfoxide”.
Turning to `CCCCCCCCCCCCC[C@@H]1CC(=O)N[C@H]([C@@H](C)O)C(=O)N[C@H](C)C(=O)N[C@@H](Cc2ccc(O)cc2)C(=O)N[C@@H](C(C)C)C(=O)N2C[C@H](O)C[C@H]2C(=O)N[C@H]([C@@H](C)O)C(=O)N[C@@H]([C@@H](C)O)C(=O)N2CC[C@H](O)[C@H]2C(=O)NC([C@H](O)CC(N)=O)C(=O)NCC(=O)N[C@H]([C@@H](C)O)C(=O)N[C@@H](CCCNC(=O)[C@@H](CCCN)NC(=O)[C@@H](N)CCCN)C(=O)O1` (stereo partly drawn) [Aerothricin 133] ([d(aThr)][dA]YV[Hyp][d(aThr)]T[Pro(3S-OH)][ξGln(3R-OH)]G[d(aThr)][Orn]([dOrn-Orn]); linker N-C via X3), the “In vivo antifungal activity … on day 7” value in data set [6] turned out to be 0.35 mg/kg.
Regarding `CCCCCCCCCCCCC[C@@H]1CC(=O)N[C@H]([C@@H](C)O)C(=O)N[C@H](C)C(=O)N[C@@H](Cc2ccc(O)cc2)C(=O)N[C@@H](C(C)C)C(=O)N2C[C@H](O)C[C@H]2C(=O)N[C@H]([C@@H](C)O)C(=O)N[C@@H]([C@@H](C)O)C(=O)N2CC[C@H](O)[C@H]2C(=O)NC(C(O)CC(N)=O)C(=O)NCC(=O)N[C@H]([C@@H](C)O)C(=O)N[C@@H](CCCN(CCCN)C(=O)[C@@H](N)CCCN)C(=O)O1` (stereo partly drawn) [Aerothricin 132] ([d(aThr)][dA]YV[Hyp][d(aThr)]T[Pro(3S-OH)][X1]G[d(aThr)][X2]; linker N-C via X3), the figures for the “In vitro Antifungal activity, IC80” value in data set [2], in data set [3] and in data set [4] were 0.28 µg/mL, 0.38 µg/mL and 2.9 µg/mL, respectively. Also, the “In vivo antifungal activity … on day 7” value in data set [6] is 0.43 mg/kg. Further, the “In vivo antifungal activity … on day 14” value in data set [1] is listed as 5.2 mg/kg. In data set [7], the Cytotoxicity to hepatocyte was more than 100 µg/mL. In addition, the acute toxicity result in data set [8] is “no acute toxicity”.
As for `CCCCCOc1ccc(-c2ccc(-c3ccc(C(=O)N[C@H]4C[C@@H](O)[C@@H](O)NC(=O)[C@@H]5[C@@H](O)[C@@H](C)CN5C(=O)[C@H]([C@@H](C)O)NC(=O)[C@H]([C@H](O)[C@@H](O)c5ccc(O)cc5)NC(=O)[C@@H]5C[C@@H](O)CN5C(=O)[C@H]([C@@H](C)O)NC4=O)cc3)cc2)cc1` [LY303366, reference compound] ({pTerphenylCO(4''-OnC5H11)}-[Orn(4R-OH,5R-OH)]T[Hyp][hTyr(3S-OH,4S-OH)]T[Pro(3S-OH,4S-Me)]; lactam 1-C), the Cytotoxicity to hepatocyte in data set [7] was found to be 10 µg/mL.
As to `CCCCCCCCCCCCC[C@@H]1CC(=O)N[C@H]([C@@H](C)O)C(=O)N[C@H](C)C(=O)N[C@@H](Cc2ccc(O)cc2)C(=O)N[C@@H](C(C)C)C(=O)N2C[C@H](O)C[C@H]2C(=O)N[C@H]([C@@H](C)O)C(=O)N[C@@H]([C@@H](C)O)C(=O)N2CC[C@H](O)[C@H]2C(=O)NC(C(O)CC(N)=O)C(=O)NCC(=O)N[C@H]([C@@H](C)O)C(=O)N[C@@H](CCCN(CCCN)C(=O)[C@H](CCCN)N(CCN)CCN)C(=O)O1` (stereo partly drawn) [Aerothricin 134] ([d(aThr)][dA]YV[Hyp][d(aThr)]T[Pro(3S-OH)][X1]G[d(aThr)][X4](Orn(Nα,Nα-(2-aminoethyl)2)); linker N-C via X3), the results for the “In vitro Antifungal activity, IC80” value in data set [2], in data set [3] and in data set [4] were 0.37 µg/mL, 0.37 µg/mL and 0.58 µg/mL, respectively. In addition, the “In vivo antifungal activity … on day 14” value in data set [1] amounted to 5.8 mg/kg. The same molecule returned a Cytotoxicity to hepatocyte in data set [7] of more than 100 µg/mL.
